This is an account of results in patent US9670212B2, “Inhibitors of PI3K-delta and methods of their use and manufacture” (Exelixis, Inc., priority 2010, dated 2017).

PI3K delta, sequence (O00329 whole entry): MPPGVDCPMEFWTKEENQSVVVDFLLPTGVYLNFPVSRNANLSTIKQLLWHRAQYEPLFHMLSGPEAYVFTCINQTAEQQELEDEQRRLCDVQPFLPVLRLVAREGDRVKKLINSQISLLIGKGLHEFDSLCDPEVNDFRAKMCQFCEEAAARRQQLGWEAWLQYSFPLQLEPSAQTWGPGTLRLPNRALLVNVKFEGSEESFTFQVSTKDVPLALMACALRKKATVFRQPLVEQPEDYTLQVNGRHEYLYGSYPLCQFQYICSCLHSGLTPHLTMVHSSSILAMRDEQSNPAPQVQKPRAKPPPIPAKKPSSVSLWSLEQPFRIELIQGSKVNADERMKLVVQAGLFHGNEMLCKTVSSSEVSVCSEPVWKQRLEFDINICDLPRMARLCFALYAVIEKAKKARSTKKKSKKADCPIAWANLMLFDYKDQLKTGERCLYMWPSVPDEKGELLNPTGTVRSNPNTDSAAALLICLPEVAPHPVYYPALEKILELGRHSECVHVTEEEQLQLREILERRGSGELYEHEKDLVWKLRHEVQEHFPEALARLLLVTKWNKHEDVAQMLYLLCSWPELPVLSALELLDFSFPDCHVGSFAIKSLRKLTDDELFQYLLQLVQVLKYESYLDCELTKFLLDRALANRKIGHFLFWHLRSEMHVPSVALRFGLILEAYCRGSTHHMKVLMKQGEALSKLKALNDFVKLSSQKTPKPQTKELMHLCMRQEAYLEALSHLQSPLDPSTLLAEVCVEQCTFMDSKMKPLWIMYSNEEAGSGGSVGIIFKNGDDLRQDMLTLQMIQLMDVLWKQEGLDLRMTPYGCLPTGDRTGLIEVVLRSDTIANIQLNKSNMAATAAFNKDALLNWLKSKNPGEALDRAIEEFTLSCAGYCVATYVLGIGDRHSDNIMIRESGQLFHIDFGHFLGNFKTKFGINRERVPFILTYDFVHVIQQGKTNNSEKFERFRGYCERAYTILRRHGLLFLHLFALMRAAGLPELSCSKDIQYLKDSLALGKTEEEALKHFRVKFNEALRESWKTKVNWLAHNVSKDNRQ
PI3K delta, sequence (P27986 whole entry partner): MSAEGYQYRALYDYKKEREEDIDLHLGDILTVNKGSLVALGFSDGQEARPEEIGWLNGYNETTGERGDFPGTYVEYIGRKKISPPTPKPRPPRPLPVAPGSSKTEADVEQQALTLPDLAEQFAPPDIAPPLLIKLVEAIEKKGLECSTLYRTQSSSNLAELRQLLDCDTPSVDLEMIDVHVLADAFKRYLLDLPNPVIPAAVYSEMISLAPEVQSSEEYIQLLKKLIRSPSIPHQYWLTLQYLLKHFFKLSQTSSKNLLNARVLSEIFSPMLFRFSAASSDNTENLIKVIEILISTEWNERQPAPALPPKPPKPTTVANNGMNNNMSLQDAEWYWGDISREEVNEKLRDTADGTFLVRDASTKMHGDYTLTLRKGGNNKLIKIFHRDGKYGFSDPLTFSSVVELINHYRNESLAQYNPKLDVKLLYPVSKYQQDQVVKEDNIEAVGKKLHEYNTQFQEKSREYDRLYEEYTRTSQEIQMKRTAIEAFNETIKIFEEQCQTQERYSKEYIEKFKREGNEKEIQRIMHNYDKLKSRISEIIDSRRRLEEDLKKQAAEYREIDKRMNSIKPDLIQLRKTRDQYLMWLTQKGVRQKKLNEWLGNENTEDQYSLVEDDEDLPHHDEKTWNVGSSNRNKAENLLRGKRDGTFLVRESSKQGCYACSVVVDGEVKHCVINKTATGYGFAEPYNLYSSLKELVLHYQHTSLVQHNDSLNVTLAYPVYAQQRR

The assay deals with PI3K delta (Homo sapiens (Human), UniProt O00329). Put plainly: Luciferase-coupled chemiluminescence kinase assay (KinaseGlo, ATP consumption). It counts as biochemical. As for the experimental part:
Kinase activity and compound inhibition were investigated using one or more of the assay formats described below. The ATP concentrations used in the various assays were approximately equal to or less than the KM for each of the respective kinases. Dose-response experiments were performed using an intra-plate dilution scheme with 10 different inhibitor concentrations in a 384-well microtiter plate. […] Typically N should approximate unity. Curve fitting was performed using XLFit or ActivityBase. Luciferase-Coupled Chemiluminescence Assay Protocol
Kinase activity is measured as the percent of ATP consumed following the kinase reaction using luciferase-luciferin-coupled chemiluminescence. […] Kinase reactions were initiated by combining test compounds, kinase, and ATP in a 20 μL volume (6 μL volume for 1536-well plate). The reaction mixture was incubated at ambient temperature for 2 h. Following the kinase reaction, a 20 μL (or 3 μL for 1536-well plate) aliquot of KinaseGlo (Promega) was added and the chemiluminescence signal measured using an EnVision plate reader (Perkin Elmer).
(In general: In Kinase-Glo more light means more ATP remaining.)
Turning to `Cc1cccc2cc(CNc3ncnc4[nH]cnc34)c(N(C)CC3CCCCN3C)nc12` (centres unmarked) [Compound 38, N,8-dimethyl-N-[(1-methylpiperidin-2-yl)methyl]-3-[(9H-purin-6-ylamino)methyl]quinolin-2-amine], the concentration for half-maximal inhibition (IC50) – broadly, the point on the concentration scale where inhibition reaches its midpoint – was less than 50 nM. With `Cc1cccc2cc(CNc3ncnc4[nH]cnc34)c(N(C)CC3CCCN(C)C3)nc12` (centres unmarked) [Compound 32, N,8-dimethyl-N-[(1-methylpiperidin-3-yl)methyl]-3-[(9H-purin-6-ylamino)methyl]quinolin-2-amine], the IC50 was less than 50 nM. Turning to `COCCOc1cccc(-c2nc3c(C)cccc3cc2Cn2cnc3c(N)ncnc32)c1` [Compound 184, 9-{[8-methyl-2-(3-{[2-(methyloxy)ethyl]oxy}phenyl)quinolin-3-yl]methyl}-9H-purin-6-amine], the IC50 lay within 250 to 500 nM. Next, `CNCCOc1nc2c(C)cccc2cc1CNC(=O)c1nccnc1N` [Compound 122, 3-amino-N-[(8-methyl-2-{[2-(methylamino)ethyl]oxy}quinolin-3-yl)methyl]pyrazine-2-carboxamide]: 500 to 1500 nM.

In the case of `Cc1cccc(-c2nc3c(C)cccc3cc2Cn2cnc3c(N)ncnc32)c1` [Compound 183, 9-{[8-methyl-2-(3-methylphenyl)quinolin-3-yl]methyl}-9H-purin-6-amine], the IC50 fell in the range of 250 to 500 nM. Compound `Cc1cccc2cc(CNC(=O)c3nccnc3N)c(N(C)CCN(C)CC(=O)N(C)C)nc12` [Compound 89, 3-amino-N-({2-[(2-{[2-(dimethylamino)-2-oxoethyl](methyl)amino}ethyl)(methyl)amino]-8-methylquinolin-3-yl}methyl)pyrazine-2-carboxamide] returned an IC50 of less than 50 nM.

The compound `Cc1cccc2cc(CNC(=O)c3nccnc3N)c(N(C)CCN(C)CC#N)nc12` [Compound 84, 3-amino-N-({2-[{2-[(cyanomethyl)(methyl)amino]ethyl}(methyl)amino]-8-methylquinolin-3-yl}methyl)pyrazine-2-carboxamide] showed an IC50 of 50 to 250 nM. `Cc1ccccc1-c1nc2c(C)cccc2cc1Cn1nc(I)c2c(N)ncnc21` [Compound 134, 3-iodo-1-{[8-methyl-2-(2-methylphenyl)quinolin-3-yl]methyl}-1H-pyrazolo[3,4-d]pyrimidin-4-amine] registered an IC50 of less than 50 nM. In the case of `Cc1cccc2cc(Cn3cnc4c(N)ncnc43)c(-c3ccccc3Cl)nc12` [Compound 187, 9-{[2-(2-chlorophenyl)-8-methylquinolin-3-yl]methyl}-9H-purin-6-amine], the IC50 lay in the range of 50 to 250 nM. In the case of `Cc1ccccc1-c1cc2ccccc2nc1Cn1cnc2ncnc(N)c21` [Compound 178, 7-{[3-(2-methylphenyl)quinolin-2-yl]methyl}-7H-purin-6-amine] it was 50 to 250 nM.

The compound `Cc1cccc2cc(COc3ccc4c(c3)OCO4)c(-c3ccccc3Cl)nc12` [Compound 8, 3-[(1,3-benzodioxol-5-yloxy)methyl]-2-(2-chlorophenyl)-8-methylquinoline] registered an IC50 of 500 to 1500 nM.

The compound `Cc1cccc2cc(CNC(=O)c3nccnc3N)c(N(C)CCNC(=O)Cn3ccnn3)nc12` [Compound 51, 3-amino-N-{[8-methyl-2-(methyl{2-[(1H-1,2,3-triazol-1-ylacetyl)amino]ethyl}amino)quinolin-3-yl]methyl}pyrazine-2-carboxamide] showed an IC50 of 50 to 250 nM. In turn, `Nc1nccnc1C(=O)NCc1nc2ccccc2cc1-c1ccc(CN2CCOCC2)cc1` [Compound 71, 3-amino-N-({3-[4-(morpholin-4-ylmethyl)phenyl]quinolin-2-yl}methyl)pyrazine-2-carboxamide] yielded an IC50 of 500 to 1500 nM. The compound `Cc1cccc2cc(CNC(=O)c3nccnc3N)c(N3CCCN(Cc4ccncc4)CC3)nc12` [Compound 65, 3-amino-N-({8-methyl-2-[4-(pyridin-4-ylmethyl)-1,4-diazepan-1-yl]quinolin-3-yl}methyl)pyrazine-2-carboxamide] came in with an IC50 of 500 to 1500 nM.

As for `Cc1cccc2cc(CNC(=O)c3nccnc3N)c(N(C)CC3CCCN(C)C3)nc12` (centres unmarked) [Compound 30, 3-amino-N-[(8-methyl-2-{methyl[(1-methylpiperidin-3-yl)methyl]amino}quinolin-3-yl)methyl]pyrazine-2-carboxamide], the IC50 is less than 50 nM.

As for `COc1ccc(OCc2cc3cccc(C)c3nc2-c2ccccc2Cl)cc1` [Compound 16, 2-(2-chlorophenyl)-8-methyl-3-({[4-(methyloxy)phenyl]oxy}methyl)quinoline], the IC50 is 500 to 1500 nM. Regarding `Cc1cccc2cc(CNc3ncnc4[nH]cnc34)c(N3CCc4ccccc4C3)nc12` [Compound 19, N-{[2-(3,4-dihydroisoquinolin-2(1H)-yl)-8-methylquinolin-3-yl]methyl}-9H-purin-6-amine], the IC50 lay within 500 to 1500 nM.

As for `Cc1cccc2cc(CNc3ncnc4[nH]cnc34)c(N(C)CCN(C)C(=O)Cn3ccnn3)nc12` [Compound 35, N-methyl-N-[2-(methyl{8-methyl-3-[(9H-purin-6-ylamino)methyl]quinolin-2-yl}amino)ethyl]-2-(1H-1,2,3-triazol-1-yl)acetamide], the IC50 was less than 50 nM. As for `Cc1cccc2cc(Cn3cnc4c(N)ncnc43)c(NS(=O)(=O)c3ccccc3)nc12` [Compound 156, N-{3-[(6-amino-9H-purin-9-yl)methyl]-8-methylquinolin-2-yl}benzenesulfonamide], the IC50 lay in the range of 500 to 1500 nM. The compound `Cc1cccc2cc(CNc3cccc4c3OCCO4)c(-c3ccccc3Cl)nc12` [Compound 5] returned an IC50 of 500 to 1500 nM.

`Cc1cccc2cc(Cn3cnc4c(N)ncnc43)c(N3CCOCC3)nc12` [Compound 177, 9-[(8-methyl-2-morpholin-4-ylquinolin-3-yl)methyl]-9H-purin-6-amine] gave an IC50 of 50 to 250 nM.

`CN(C)C(=O)c1ccccc1-c1cc2ccccc2nc1CNC(=O)c1nccnc1N` [Compound 56, 3-amino-N-[(3-{2-[(dimethylamino)carbonyl]phenyl}quinolin-2-yl)methyl]pyrazine-2-carboxamide] returned an IC50 of 250 to 500 nM.

In turn, `Cc1cccc2cc(CNC(=O)c3nccnc3N)c(N3CCC(N(C)C)CC3)nc12` [Compound 127, 3-amino-N-({2-[4-(dimethylamino)piperidin-1-yl]-8-methylquinolin-3-yl}methyl)pyrazine-2-carboxamide] displayed an IC50 of 500 to 1500 nM. Compound `Cc1cccc2cc(CNC(=O)c3nccnc3N)c(N(C)CCN(C)CC(=O)N3CCOCC3)nc12` [Compound 77, 3-amino-N-{[8-methyl-2-(methyl{2-[methyl(2-morpholin-4-yl-2-oxoethyl)amino]ethyl}amino)quinolin-3-yl]methyl}pyrazine-2-carboxamide] showed an IC50 of 50 to 250 nM. Turning to `Cc1cccc2cc(CSc3ncnc4[nH]cnc34)c(N(C)CC3CCN(C)CC3)nc12` [Compound 1, N,8-dimethyl-N-[(1-methylpiperidin-4-yl)methyl]-3-[(9H-purin-6-ylthio)methyl]quinolin-2-amine], the 50% inhibitory concentration (IC50) fell in the range of 50 to 250 nM. Take `Cc1cccc2cc(CNC(=O)c3nccnc3N)c(N(C)CCN(C)C(=O)c3cncn3C)nc12` [Compound 110, 3-amino-N-({8-methyl-2-[methyl(2-{methyl[(1-methyl-1H-imidazol-5-yl)carbonyl]amino}ethyl)amino]quinolin-3-yl}methyl)pyrazine-2-carboxamide]: the IC50 was in the range of 50 to 250 nM.
